Data reported in ChEMBL document CHEMBL1124404, “Conformationally restricted and conformationally defined tyramine analogues as inhibitors of phenylethanolamine N-methyltransferase” (J Med Chem, 1989).

Tests used:
[1] = target: T1, Phenylethanolamine N-methyltransferase (Bos taurus, UniProt P10938); experiment: In vitro inhibitory activity against Phenylethanolamine N-methyl-transferase (PNMT)
T1 sequence (P10938 whole entry): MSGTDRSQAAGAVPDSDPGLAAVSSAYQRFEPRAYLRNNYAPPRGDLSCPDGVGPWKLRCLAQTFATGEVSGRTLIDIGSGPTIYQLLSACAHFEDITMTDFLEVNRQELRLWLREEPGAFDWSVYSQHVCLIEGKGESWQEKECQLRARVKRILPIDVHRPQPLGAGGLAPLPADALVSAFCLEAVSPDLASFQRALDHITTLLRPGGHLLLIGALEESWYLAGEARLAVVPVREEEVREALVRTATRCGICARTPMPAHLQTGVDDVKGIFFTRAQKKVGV

[2] = target: T1, Phenylethanolamine N-methyltransferase; experiment: In vitro inhibitory activity against bovine phenylethanolamine N-methyl-transferase
[3] = target: T1, Phenylethanolamine N-methyltransferase; experiment: The compound was tested for In vitro inhibitory activity against Phenylethanolamine N-Methyltransferase (PNMT)

| Compound | Ki [2] [µM] | also measured |
| --- | --- | --- |
| NC1CCc2ccc(O)cc2C1 (stereo unspecified) |  | Ki [1]: 76 µM |
| COc1ccc2c(c1)C1CC2CC1N (stereo unspecified) | > 2000 |  |
| COc1ccc2c(c1)C1CCC(N)(C2)C1 (stereo unspecified) | 389 |  |
| NC1CCc2cc(O)ccc2C1 (stereo unspecified) | 4.7 |  |
| NC12CCC(C1)c1ccc(O)cc1C2 (stereo unspecified) | 1270 |  |
| NC1CCc2cccc(O)c2C1 (stereo unspecified) | 39 |  |
| COc1ccc2c(c1)CC1(N)CCC2C1 (stereo unspecified) | 1410 |  |
| NC12CCC(C1)c1ccccc1C2 (stereo unspecified) | 206 |  |
| NCCc1cccc(O)c1 |  | Ki [3]: 1250 µM |
| COc1cccc2c1CC(N)CC2 (stereo unspecified) | 144 |  |
| N[C@@H]1CC2CC1c1c(O)cccc12 (stereo partly specified) | > 3000 |  |
| NC1CCc2ccccc2C1 (stereo unspecified) | 6.8 |  |
| COc1cccc2c1CCC(N)C2 (stereo unspecified) | 157 |  |
| COc1cccc2c1C1CC2CC1N (stereo unspecified) | > 2000 |  |
| NC12CCC(C1)c1cc(O)ccc1C2 (stereo unspecified) | 111 |  |
| NC1CC2CC1c1ccc(O)cc12 (stereo unspecified) | 304 |  |
| COc1cccc2c1C1CCC(N)(C2)C1 (stereo unspecified) | 8420 |  |
| NC1CC2CC1c1ccccc12 (stereo unspecified) | 479 |  |
| COc1ccc2c(c1)CC(N)CC2 (stereo unspecified) | 228 |  |
| COc1cccc2c1C1CC(N)C2C1 (stereo unspecified) | > 2000 |  |
| NC12CCC(C1)c1c(O)cccc1C2 (stereo unspecified) | 3470 |  |
| NC1CC2CC1c1cccc(O)c12 (stereo unspecified) | > 10000 |  |
| NC1CCc2c(O)cccc2C1 (stereo unspecified) | 21 |  |
| COc1ccc2c(c1)CCC(N)C2 (stereo unspecified) | 34 |  |
| NCCc1ccccc1 [PHENETHYLAMINE] | 854 |  |
| NCCc1ccc(O)cc1 [TYRAMINE] |  | Ki [3]: 294 µM |
